Laboratory results as given in US10155760B2, “Biaryl kinase inhibitors” (BRISTOL-MYERS SQUIBB COMPANY, priority 2014, dated 2018).

Experiments:
[1] = biological target: GST-Xa-hAAK1 (Homo sapiens (Human), UniProt Q2M2I8); experiment: AAK1 Kinase Assay; assay type: biochemical; conditions: ATP 22 μM; GST-Xa-hAAK1 3.5 nM; 3 hours at room temperature
Protocol: The assays were performed in U-bottom 384-well plates. […] The reactions were initiated by the combination of bacterially expressed, GST-Xa-hAAK1 with substrates and test compounds. The reactions were incubated at room temperature for 3 hours and terminated by adding 60 μl of 35 mM EDTA buffer to each sample. The reactions were analyzed on the Caliper LabChip 3000 (Caliper, Hopkinton, Mass.) by electrophoretic separation of the fluorescent substrate and phosphorylated product. […] Compounds were dissolved at 10 mM in dimethylsulfoxide (DMSO) and evaluated at eleven concentrations. IC50 values were derived by non-linear regression analysis.

[2] = test system: PC12 cells; conditions: cited from earlier work
[3] = test system: HCV; conditions: Huh-7.5 cells; cited from earlier work
[4] = test system: HCV; conditions: Huh-7.5 cells; cited from earlier work; remark: listed apart in the source

GST-Xa-hAAK1, sequence (Q2M2I8 whole entry): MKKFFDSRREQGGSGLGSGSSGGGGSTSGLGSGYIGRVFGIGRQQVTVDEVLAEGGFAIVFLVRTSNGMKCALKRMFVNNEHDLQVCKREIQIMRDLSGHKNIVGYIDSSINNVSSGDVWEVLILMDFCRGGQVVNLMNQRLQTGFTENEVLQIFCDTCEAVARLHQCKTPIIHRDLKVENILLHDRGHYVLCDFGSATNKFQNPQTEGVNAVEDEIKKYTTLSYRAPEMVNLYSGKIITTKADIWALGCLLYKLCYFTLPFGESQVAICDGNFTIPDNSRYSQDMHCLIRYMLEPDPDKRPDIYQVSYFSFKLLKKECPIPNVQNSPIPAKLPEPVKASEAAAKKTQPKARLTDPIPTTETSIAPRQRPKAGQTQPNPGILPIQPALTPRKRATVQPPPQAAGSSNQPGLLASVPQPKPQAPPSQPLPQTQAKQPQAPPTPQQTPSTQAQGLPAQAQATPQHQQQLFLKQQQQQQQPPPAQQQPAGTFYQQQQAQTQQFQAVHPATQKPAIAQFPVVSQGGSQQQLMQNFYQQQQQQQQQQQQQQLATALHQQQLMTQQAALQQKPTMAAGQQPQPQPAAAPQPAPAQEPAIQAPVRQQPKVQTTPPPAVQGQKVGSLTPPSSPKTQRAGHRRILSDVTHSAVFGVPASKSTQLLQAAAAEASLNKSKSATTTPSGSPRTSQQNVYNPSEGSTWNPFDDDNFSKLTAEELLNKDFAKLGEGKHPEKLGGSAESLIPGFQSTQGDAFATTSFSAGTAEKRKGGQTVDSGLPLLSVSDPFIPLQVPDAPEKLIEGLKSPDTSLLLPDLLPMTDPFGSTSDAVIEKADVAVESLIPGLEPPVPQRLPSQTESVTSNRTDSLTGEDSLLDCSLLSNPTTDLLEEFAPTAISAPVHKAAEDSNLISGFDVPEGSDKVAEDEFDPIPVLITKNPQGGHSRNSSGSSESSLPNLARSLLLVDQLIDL

## CC(C)C[C@](C)(N)COc1ccc(-c2ccnc3cc(F)ccc23)nc1Cl [Example 136, (S)-1-((2-chloro-6-(7-fluoroquinolin-4-yl)pyridin-3-yl)oxy)-2,4-dimethylpentan-2-amine]
[1]
  IC50: 4.8 nM

## COC(=O)[C@@]1(O)C[C@H]2O[C@]1(C)n1c3ccccc3c3c4c(c5c6ccccc6n2c5c31)C(=O)NC4 [Example K252a, K252a]
[2]
  effect on Neuregulin-1 induced neurite outgrowth: potentiation of Neuregulin-1 induced neurite outgrowth

## CCN(CC)CCNC(=O)c1c(C)[nH]c(/C=C2\C(=O)Nc3ccc(F)cc32)c1C [sunitinib]
[3]
  effect on HCV virion assembly: reduced HCV virion assembly
[4]
  effect on HCV entry: inhibit HCV entry
